Results: patent publication US12240811B2, “N-heterocyclic five-membered ring-containing capsid protein assembly inhibitor, pharmaceutical composition and uses thereof” (CHIA TAI TIANQING PHARMACEUTICAL GROUP CO., LTD., priority 2019, dated 2025)
pIC50: −log10 of the molar value.

Columns and labels:
[1] = Stability of liver microsomes in vitro, mouse; type: in vitro ADME
Method: 300 μL of a final incubation system contains 30 μL of liver microsomes (protein concentration: 0.15 mg/mL, Corning), 30 μL NADPH+MgCl2, 3 μL substrate (formulated with acetonitrile), and 237 μL PBS buffer. Duplicate incubation systems of 0.3 mL each were formulated for each species. A total volume of 270 μL of a uniformly mixed solution of the substrate and the enzyme was formulated in each tube, the solution and NADPH were pre-incubated at 37° C. for 5 minutes, respectively. Then 30 μL of the mixed solution of NADPH+MgCl2 was added for reaction. 50 μL of the reaction solution was taken out at 0, 10, 30, and 60 mins, and the reaction was terminated with 300 μL of ice acetonitrile containing an internal standard.
Sample pre-treatment: To 50 μL of the incubated sample was added 300 μL of ice acetonitrile containing diazepam as an internal standard and then precipitated. After vortexing for 5 minutes, the sample was centrifugated (12000 rpm, 4° C.) for 10 minutes. 75 μL of the supernatant was pipetted into a 96-well plate, and then diluted with 75 μL ultrapure water and mixed uniformly. 0.5 μL of the resulting solution was injected and analyzed by LC-MS/MS.

CYP 2C9 = CYP 2C9 (Homo sapiens (Human), UniProt P11712); assay: CYP450 enzyme inhibition study, CYP 2C9; type: in vitro ADME; details: human liver microsomes; read-out: Subtypes IC50 2C9
Method: 500 μL of a final incubation system contains 50 μL of human liver microsomes (protein concentration: 0.2 mg/mL, Corning), 1 μL of mixed CYP450 specific substrates (CYP1A2, CYP 2B6, CYP 2C9, CYP2C19, CYP 2D6, and CYP 3A4), 398 μL PBS buffer (pH7.4), 1 μL specific positive inhibitor (positive control group) or the test compound (formulated with acetonitrile), and 50 μL NADPH+MgCl2. Duplicate incubation systems of 0.5 mL each were formulated for each CYP450 subtype. A total volume of 450 μL of a uniformly mixed solution of the substrate and the enzyme was formulated in each tube, and the solution and NADPH were pre-incubated at 37° C. for 5 minutes, respectively. Then 50 μL of the mixed solution of NADPH+MgCl2 was added for reaction. 50 μL of the reaction solution was taken out at 30 minutes, and the reaction was terminated with 300 μL of ice acetonitrile containing an internal standard. In addition, two control groups of 500 μL each without NADPH were prepared in parallel as a negative control group.
Sample pre-treatment: To 50 μL of the incubated sample was added 300 μL of ice acetonitrile containing an internal standard, and then precipitated. After vortexing for 5 minutes, the sample was centrifugated (12000 rpm, 4° C.) for 10 minutes. 75 μL of the supernatant was pipetted, and 75 μL of ultrapure water was added thereto for dilution and mixed uniformly. […]

HBV DNA in serum [2] = assay: pAAV/HBV mouse model; type: in vivo, C57BL/6 mice; details: 3 mpk intragastric once daily
Method: 6-8 week old male C57BL/6 mice (Shanghai Lingchang Biotechnology Co., Ltd.) were used, and each mouse was injected with purified recombinant plasmid pAAV/HBV1.2 ([…]) dissolved in PBS equivalent to a volume of about 10% of its body weight through the tail vein within 3-8 s. Blood was collected from the orbits of the mice at 3 days after the plasmid injection to detect serum HBV DNA. The model mice having uniform serum DNA were selected and divided into: a model control group, a vehicle control group, and a test substance group. Mice in each group were continuously administered intragastrically once daily for 10 days at a dose of 3 mg/kg. The mouse serum was taken on day 0, 4, 7, and 10 after the administration, and the mice were sacrificed on day 10 to take liver tissue samples. The HBV DNA copy numbers in serum and liver of the mice were detected by fluorescent quantitative PCR method.

HBV DNA in serum [3] = assay: Antiviral effect evaluation in AAV mouse model (rAAV8-1.3HBV); type: in vivo, C57BL/6 mice; details: for Reduction levels (log10) of HBV DNA in serum, Day 28: Day 28 (1 week after administration suspended)
Method: 6-8 week old male C57BL/6 mice (Shanghai Lingchang Biotechnology Co., Ltd.) were injected with rAAV8-1.3HBV virus (Beijing FivePlus Gene Technology Ltd., adr subtype) at tail vein at a dose of 1×10^11 vg. Blood was collected from the orbits of the mice on week 2 and 4 after the virus injection. The serum was separated, and the expression levels of HBeAg and HBsAg in the serum and the HBV DNA copy number were detected to evaluate whether the model was successfully established. According to the results of quantitative detection of serological HBeAg, HBsAg and HBV DNA, the mice having HBV DNA expression level greater than 1×10^4 IU/mL, HBeAg expression level greater than 1×10^3 NCU/mL and HBsAg expression level greater than 1×10^3 ng/mL were selected. The mice were grouped into a blank control group, a vehicle control group, and a test substance group. The mice in each group were continuously administered intragastrically once daily for 3 weeks and then the administration was suspended for 1 week. During the experiment, blood was collected from the orbits every other week, serum was separated, and the DNA content was detected by fluorescent quantitative PCR method.

[4] = Plasma protein binding assay, mouse plasma; type: in vitro ADME
Method: Formulation of plasma sample: 495 μL of blank plasmas of the corresponding species (mouse, rat, dog, monkey, and human) were drawn respectively, and thereto was added 5 μL of the corresponding test compound solution or positive control to give plasma sample solutions having a plasma drug concentration of the compound of 1 μM, and 10 μM, respectively (formulated with acetonitrile).
The pre-treated dialysis membrane was placed in a high-throughput equilibrium dialysis device, and 100 μL of the plasma sample solution and PBS buffer solution were drawn and added respectively to both sides of the dialysis membrane (sample side and buffer side) (n=3). After the equilibration device was sealed with a film, it was incubated at 37° C. overnight (100 rpm). After dialysis equilibrium was reached, 50 μL samples were drawn from the sample side and the buffer side, respectively, and the reaction was terminated by adding ice acetonitrile containing an internal standard.
Sample pre-treatment: To 50 μL of the plasma-side sample was added 450 μL of ice acetonitrile containing an internal standard, and then precipitated. After vortexing for 5 minutes, the sample was centrifugated (12000 rpm, 4° C.) for 10 minutes. 75 μL of the supernatant was pipetted, and 75 μL of ultrapure water was added thereto for dilution and mixed uniformly. 1 μL of the resulting solution was injected for analysis. […]

Sequence of CYP 2C9 (P11712 whole entry): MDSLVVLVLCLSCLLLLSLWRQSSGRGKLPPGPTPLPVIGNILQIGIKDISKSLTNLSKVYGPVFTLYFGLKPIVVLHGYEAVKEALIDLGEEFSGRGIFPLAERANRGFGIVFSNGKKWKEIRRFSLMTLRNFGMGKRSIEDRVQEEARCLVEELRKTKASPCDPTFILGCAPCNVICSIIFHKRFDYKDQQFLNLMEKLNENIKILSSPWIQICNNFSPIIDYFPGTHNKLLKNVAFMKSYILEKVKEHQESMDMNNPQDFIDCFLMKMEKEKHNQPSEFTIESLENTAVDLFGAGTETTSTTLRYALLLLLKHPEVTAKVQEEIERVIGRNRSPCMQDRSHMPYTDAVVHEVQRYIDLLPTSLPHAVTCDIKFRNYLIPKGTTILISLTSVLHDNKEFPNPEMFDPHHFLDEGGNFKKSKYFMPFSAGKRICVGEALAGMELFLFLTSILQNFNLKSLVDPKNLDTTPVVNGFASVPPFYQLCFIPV

## Cc1[nH]c(C(=O)C(=O)N[C@@H](C)C(F)(F)F)c(C)c1C(=O)Nc1ccc(F)c(C#N)c1 [Example 1, (S)—N-(3-cyano-4-fluorophenyl)-2,4-dimethyl-5-(2-oxo-2-((1,1,1-trifluoroprop-2-yl)amino)acetyl)-1H-pyrrole-3-carboxamide]
[1]
  Remaining (%) of mouse liver microsomes at 60 min: 96%
CYP 2C9
  pIC50: < 3.70
HBV DNA in serum [2]; Day 4
  Reduction levels (log10) of HBV DNA in serum, Day 4: 2.95 log10
HBV DNA in serum [2]; Day 7
  Reduction levels (log10) of HBV DNA in serum, Day 7: 4.13 log10
HBV DNA in serum [2]; Day 10
  Reduction levels (log10) of HBV DNA in serum, Day 10: 2.71 log10
HBV DNA in serum [3]; 1 mpk intragastric once daily
  Reduction levels (log10) of HBV DNA in serum, Day 7: 2.49 log10
  Reduction levels (log10) of HBV DNA in serum, Day 14: 3.41 log10
  Reduction levels (log10) of HBV DNA in serum, Day 21: 3.65 log10
HBV DNA in serum [3]; 1 mpk
  Reduction levels (log10) of HBV DNA in serum, Day 28: 3.25 log10
HBV DNA in serum [3]; 10 mpk intragastric once daily
  Reduction levels (log10) of HBV DNA in serum, Day 7: 2.67 log10
  Reduction levels (log10) of HBV DNA in serum, Day 14: 3.80 log10
  Reduction levels (log10) of HBV DNA in serum, Day 21: 4.30 log10
HBV DNA in serum [3]; 10 mpk
  Reduction levels (log10) of HBV DNA in serum, Day 28: 3.50 log10
[4]; 1 μM
  Binding rate (%) Mouse: 85.4%
[4]; 10 μM
  Binding rate (%) Mouse: 85.5%
